According to patent publication US20090227600A1, “4-(PYRAZINE-2-YL) -PYRROLIDINE -2-CARBOXYLIC ACID COMPOUNDS AND DERIVATIVES THEREOF AS HEPATITIS C VIRUS INHIBITORS” (priority 2004, published 2009):

Biological target: T1, HCV RNA Polymerase, recombinant NS5B with C-terminal 21 amino acid deletion, genotype 1a strain H77 (Hepatitis C virus genotype 1a, UniProt P27958)
T1 construct: fused on or other part: C-terminal 6His-tag
Assay: In vitro HCV RNA-dependent RNA polymerase inhibition assay, genotype 1a C-terminally truncated (delta21) enzyme
Assay type: biochemical, HCV genotype 1a
Conditions: genotype 1a delta21 NS5B enzyme; read-out: IC50 in delta-21 1a enzyme inhibition assay
Description: Incorporation of [^33P]-GMP into RNA was followed by absorption of the biotin labelled RNA polymer by streptavidin containing SPA beads. A synthetic template consisting of biotinylated 13mer-oligoG hybridised to polyrC was used as a homopolymer substrate.
a) Genotype 1a C-Terminally Truncated (delta21) Enzyme
HCV RNA Polymerase [Recombinant NS5B with C-terminal 21 amino acid deletion and C-terminal 6His-tag (Ferrari et al. J. Virol, 73(2), 1999, 1649. ‘Characterization of soluble hepatitis C virus RNA-dependent RNA polymerase expressed in Escherichia coli.’) expressed in E. coli and purified to homogeneity] was added to 25 nM final concentration. Polymerase of genotype 1a was from strain H77 (Yanagi, M., Purcell, R. H., Emerson, S. U. & Bukh, J. (1997), Proceedings of the National Academy of Sciences, USA 94, 8738-8743) containing a sequence change from valine to isoleucine at position 180.
Reaction Conditions were 25 nM enzyme, 1.5 μg/ml oligo-rG13/poly-rC and 0.2 μCi α-^33P-GTP in 0.5 μM GTP (20 Ci/mMol), 20 mM Tris pH 7.5, 23 mM NaCl, 3 mM DTT, 5 mM MgCl2, 1 mM MnCl2.
Enzyme was diluted to 500 nM concentration in 20 mM Tris-HCl, pH 7.5, 25 mM NaCl and 3 mM DTT.
4× concentrated assay buffer mix was prepared using 1M Tris-HCl, pH7.5 (1 mL), 5M NaCl (0.25 mL), 1M DTT (0.12 mL) and Water (8.63 mL), Total 10 mL.
2× concentrated first reagent was prepared using 4× concentrated assay buffer mix (5 μL), 40 u/μL RNasin (0.1 μL), 20 μg/mL polyrC/biotinylated-oligoG (1.6 μL), 500 nM enzyme (1 μL) and Water (2.3 μL), Total 10 μl/well.
2× concentrated second reagent was prepared using 1M MgCl2 (0.1 μL), 1M MnCl2 (0.02 μL), 25 μM GTP (0.4 μL), α-[^33P]-GTP (10 μCi/μL, 0.02 μL) and water (9.5 μL), Total 10 μL/well.
The assay was set up using compound (1 μL in 100% DMSO), first reagent (10 μL), and second reagent (10 μL), Total 21 μL.
The reaction was performed in a U-bottomed, white, 96-well plate. The reaction was mixed on a plate-shaker, after addition of the Enzyme, and incubated for 1 h at 22° C. After this time, the reaction was stopped by addition of 60 μL 1.5 mg/ml streptavidin SPA beads (Amersham) in 0.1 M EDTA in PBS. The beads were incubated with the reaction mixture for 1 h at 22° C. after which 100 μL 0.1 M EDTA in PBS was added. The plate was sealed, mixed centrifuged and incorporated radioactivity determined by counting in a Trilux (Wallac) or Topcount (Packard) Scintillation Counter.
After subtraction of background levels without enzyme, any reduction in the amount of radioactivity incorporated in the presence of a compound, compared to that in the absence, was taken as a measure of the level of inhibition. Ten concentrations of compounds were tested in three- or fivefold dilutions. From the counts per minute, percentage of inhibition at highest concentration tested or IC50s for the compounds were calculated using GraFit 3, GraFit 4 or GraFit 5 (Erithacus Software Ltd.) software packages or a data evaluation macro for Excel based on XLFit Software (IDBS).

T1 sequence (P27958 2421-3011 V2599I, form open): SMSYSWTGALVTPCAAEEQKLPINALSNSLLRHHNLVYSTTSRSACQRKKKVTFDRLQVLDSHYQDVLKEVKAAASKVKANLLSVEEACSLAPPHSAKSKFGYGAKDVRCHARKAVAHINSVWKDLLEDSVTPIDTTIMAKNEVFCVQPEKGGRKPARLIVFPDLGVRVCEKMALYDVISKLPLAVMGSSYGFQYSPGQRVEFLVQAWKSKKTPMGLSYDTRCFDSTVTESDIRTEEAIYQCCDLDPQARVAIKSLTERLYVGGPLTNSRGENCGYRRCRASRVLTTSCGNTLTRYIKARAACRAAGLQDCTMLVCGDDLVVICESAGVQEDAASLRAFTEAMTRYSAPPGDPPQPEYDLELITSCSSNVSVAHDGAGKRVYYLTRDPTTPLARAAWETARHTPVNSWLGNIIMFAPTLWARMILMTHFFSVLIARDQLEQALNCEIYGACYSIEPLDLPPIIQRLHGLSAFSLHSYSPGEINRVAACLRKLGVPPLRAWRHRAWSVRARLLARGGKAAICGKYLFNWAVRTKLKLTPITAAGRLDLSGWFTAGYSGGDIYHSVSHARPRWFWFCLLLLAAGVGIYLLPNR

Row | Structure (SMILES) | IC50 [nM]
1 | COc1cc(C(=O)N2[C@@H](c3nccs3)[C@@H](c3cnccn3)C[C@@]2(CC(C)C)C(=O)O)ccc1C(C)(C)C (racemic) [Compound A, rel-(2S,4S,5R)-2-Isobutyl-1-(4-tert-butyl-3-methoxybenzoyl)-4-(pyrazin-2-yl)-5-(1,3-thiazol-2-yl)pyrrolidine-2-carboxylic acid, reference compound] | > 1000
2 | COc1cc(C(=O)N2[C@@H](c3ncc(C)s3)[C@@H](c3cnccn3)C[C@@]2(Cn2cccn2)C(=O)O)ccc1C(C)(C)C (racemic) [Example 9, rel-(2R,4S,5R)-1-(3-Methoxy-4-tert-butylbenzoyl)-5-(5-methyl-1,3-thiazol-2-yl)-4-(pyrazin-2-yl)-2-(1H-pyrazol-1-ylmethyl)pyrrolidine-2-carboxylic acid] | < 150
3 | COc1cc(C(=O)N2[C@@H](c3nccs3)[C@@H](c3cnccn3)C[C@@]2(Cc2ccsn2)C(=O)O)ccc1C(C)(C)C (racemic) [Example 7, rel-(2R,4S,5R)-1-(3-Methoxy-4-tert-butylbenzoyl)-4-(pyrazin-2-yl)-2-(1,2-thiazol-3-ylmethyl)-5-(1,3-thiazol-2-yl)pyrrolidine-2-carboxylic acid] | < 150
4 | COc1cc(C(=O)N2[C@@H](c3nccs3)[C@@H](c3cnccn3)C[C@@]2(Cn2cccn2)C(=O)O)ccc1C(C)(C)C (single isomer, unassigned; enantiomer a) [Example 12] | < 150
5 | COc1cc(C(=O)N2[C@@H](c3nccs3)[C@@H](c3cnccn3)C[C@@]2(Cc2ccccc2)C(=O)O)ccc1C(C)(C)C (racemic) [Compound G, rel-(2R,4S,5R)-1-(4-tert-Butyl-3-methoxybenzoyl)-2-(phenylmethyl)-4-(pyrazin-2-yl)-5-(1,3-thiazol-2-yl)pyrrolidine-2-carboxylic acid, reference compound] | > 1000
6 | COc1cc(C(=O)N2[C@@H](c3ncc(C)s3)[C@@H](c3cnccn3)C[C@@]2(Cc2nccs2)C(=O)O)ccc1C(C)(C)C (racemic) [Example 13, rel-(2R,4S,5R)-1-(3-Methoxy-4-tert-butylbenzoyl)-5-(5-methyl-1,3-thiazol-2-yl)-4-(pyrazin-2-yl)-2-(1,3-thiazol-2-ylmethyl)pyrrolidine-2-carboxylic acid] | < 150
7 | COc1cc(C(=O)N2[C@@H](c3ncc(C)s3)[C@@H](c3cnccn3)C[C@@]2(Cc2ccsn2)C(=O)O)ccc1C(C)(C)C (racemic) [Example 5, rel-(2R,4S,5R)-1-(3-Methoxy-4-tert-butylbenzoyl)-5-(5-methyl-1,3-thiazol-2-yl)-4-(pyrazin-2-yl)-2-(1,2-thiazol-3-ylmethyl)pyrrolidine-2-carboxylic acid] | < 150
8 | COc1cc(C(=O)N2[C@@H](c3ncc(C)s3)[C@@H](c3cnccn3)C[C@@]2(Cc2cscn2)C(=O)O)ccc1C(C)(C)C (racemic) [Example 15, rel-(2R,4S,5R)-1-(3-Methoxy-4-tert-butylbenzoyl)-5-(5-methyl-1,3-thiazol-2-yl)-4-(pyrazin-2-yl)-2-(1,3-thiazol-4-ylmethyl)pyrrolidine-2-carboxylic acid] | < 150
9 | COc1cc(C(=O)N2[C@@H](c3nccs3)[C@@H](c3cnccn3)C[C@@]2(Cc2ccccn2)C(=O)O)ccc1C(C)(C)C (racemic) [Compound C, rel-(2R,4S,5R)-1-(4-tert-Butyl-3-methoxybenzoyl)-2-(pyridin-2-ylmethyl)-4-(pyrazin-2-yl)-5-(1,3-thiazol-2-yl)pyrrolidine-2-carboxylic acid, reference compound] | 150 to 1000
10 | COc1cc(C(=O)N2[C@@H](c3ncc(C)s3)[C@@H](c3cnccn3)C[C@@]2(Cc2nccs2)C(=O)O)ccc1C(C)(C)C (single isomer, unassigned; enantiomer a) [Example 14] | < 150
11 | COc1cc(C(=O)N2[C@@H](c3cncs3)[C@@H](c3cnccn3)C[C@@]2(CCSC)C(=O)O)ccc1C(C)(C)C (racemic) [Compound E, rel-(2R,4S,5R)-1-(4-tert-Butyl-3-methoxybenzoyl)-2-(2-(methylthio)ethyl)-4-(pyrazin-2-yl)-5-(1,3-thiazol-5-yl)-pyrrolidine-2-carboxylic acid, reference compound] | > 1000
12 | COc1cc(C(=O)N2[C@@H](c3ncc(C)s3)[C@@H](c3cnccn3)C[C@@]2(Cn2cccn2)C(=O)O)ccc1C(C)(C)C (single isomer, unassigned; enantiomer a) [Example 10] | < 150
13 | COc1cc(C(=O)N2[C@@H](c3ncc(C)s3)[C@@H](c3cnccn3)C[C@@]2(Cc2ccsn2)C(=O)O)ccc1C(C)(C)C (single isomer, unassigned; enantiomer a) [Example 6] | < 150
14 | COc1cc(C(=O)N2[C@@H](c3nccs3)[C@@H](c3cnccn3)C[C@@]2(Cc2cscn2)C(=O)O)ccc1C(C)(C)C (racemic) [Example 1, rel-(2R,4S,5R)-1-(3-Methoxy-4-tert-butylbenzoyl)-4-(pyrazin-2-yl)-2-(1,3-thiazol-4-ylmethyl)-5-(1,3-thiazol-2-yl)pyrrolidine-2-carboxylic acid] | < 150
15 | COc1cc(C(=O)N2[C@@H](c3nccs3)[C@@H](c3cnccn3)C[C@@]2(Cc2nccs2)C(=O)O)ccc1C(C)(C)C (single isomer, unassigned; enantiomer a) [Example 4] | < 150
16 | COc1cc(C(=O)N2[C@@H](c3nccs3)[C@@H](c3cnccn3)C[C@@]2(Cc2cscn2)C(=O)O)ccc1C(C)(C)C (single isomer, unassigned; enantiomer a) [Example 2] | < 150
17 | COc1cc(C(=O)N2[C@@H](c3nccs3)[C@@H](c3cnccn3)C[C@@]2(Cc2nccs2)C(=O)O)ccc1C(C)(C)C (racemic) [Example 3, rel-(2R,4S,5R)-1-(3-Methoxy-4-tert-butylbenzoyl)-4-(pyrazin-2-yl)-2-(1,3-thiazol-2-ylmethyl)-5-(1,3-thiazol-2-yl)pyrrolidine-2-carboxylic acid] | < 150
18 | COc1cc(C(=O)N2[C@@H](c3nccs3)[C@@H](c3cnccn3)C[C@@]2(CCS(C)(=O)=O)C(=O)O)ccc1C(C)(C)C (racemic) [Compound F, rel-(2R,4S,5R)-1-(4-tert-Butyl-3-methoxybenzoyl)-2-(2-(methylsulphonyl)ethyl)-4-pyrazin-2-yl-5-(1,3-thiazol-2-yl)-pyrrolidine-2-carboxylic acid, reference compound] | > 1000
19 | COc1cc(C(=O)N2[C@@H](c3nccs3)[C@@H](c3cnccn3)C[C@@]2(CC(C)C)C(=O)O)ccc1C(C)(C)C (single isomer, unassigned; enantiomer a) [Compound B, reference compound] | > 1000
20 | COc1cc(C(=O)N2[C@@H](c3nccs3)[C@@H](c3cnccn3)C[C@@]2(Cn2cccn2)C(=O)O)ccc1C(C)(C)C (racemic) [Example 11, rel-(2R,4S,5R)-1-(3-Methoxy-4-tert-butylbenzoyl)-4-(pyrazin-2-yl)-2-(1H-pyrazol-1-ylmethyl)-5-(1,3-thiazol-2-yl)pyrrolidine-2-carboxylic acid] | < 150
21 | COc1cc(C(=O)N2[C@@H](c3ncc(C)s3)[C@@H](c3cnccn3)C[C@@]2(Cc2cscn2)C(=O)O)ccc1C(C)(C)C (single isomer, unassigned; enantiomer a) [Example 16] | < 150
22 | COc1cc(C(=O)N2[C@@H](c3nccs3)[C@@H](c3cnccn3)C[C@@]2(Cc2c[nH]cn2)C(=O)O)ccc1C(C)(C)C (racemic) [Compound D, rel-(2R,4S,5R)-1-(4-tert-Butyl-3-methoxybenzoyl)-2-(1H-imidazol-4-yl-methyl)-4-(pyrazin-2-yl)-5-(1,3-thiazol-2-yl)-pyrrolidine-2-carboxylic acid, reference compound] | > 1000
